biological target: Early growth response protein 1 (Homo sapiens) (UniProt P18146); test: Disruption of EGR-1-DNA binding in TNF-alpha-stimulated human HaCaT cells assessed as decrease in IL-31 mRNA level in presence of TNF-alpha by RT-PCR analysis; type: cell-based; details: dose 10-20 µM
Sequence (P18146 whole entry, looked up): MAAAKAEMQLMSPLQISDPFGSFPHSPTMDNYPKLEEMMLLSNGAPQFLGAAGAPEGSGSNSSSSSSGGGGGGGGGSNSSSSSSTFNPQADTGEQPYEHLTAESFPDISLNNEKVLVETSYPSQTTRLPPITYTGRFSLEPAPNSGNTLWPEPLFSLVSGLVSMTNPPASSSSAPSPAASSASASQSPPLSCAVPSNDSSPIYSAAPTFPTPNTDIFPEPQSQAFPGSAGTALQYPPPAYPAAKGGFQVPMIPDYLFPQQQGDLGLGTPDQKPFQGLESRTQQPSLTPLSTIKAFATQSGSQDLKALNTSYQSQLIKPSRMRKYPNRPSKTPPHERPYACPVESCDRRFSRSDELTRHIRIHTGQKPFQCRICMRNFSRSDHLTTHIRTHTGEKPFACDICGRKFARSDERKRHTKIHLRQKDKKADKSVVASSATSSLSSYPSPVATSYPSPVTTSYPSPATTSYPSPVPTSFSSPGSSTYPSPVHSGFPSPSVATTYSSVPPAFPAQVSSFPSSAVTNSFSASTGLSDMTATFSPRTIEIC

Activity | SMILES
Dose-dependent-effect | COc1ccc(NC(=S)N2N=C(c3ccc4ccccc4c3O)CC2c2c(OC)cc(OC)cc2OC)c(OC)c1 (racemic)

biological target: Early growth response protein 1 (Homo sapiens) (UniProt P18146); test: Disruption of EGR-1-DNA binding in human HaCaT cell nuclear extract at 50 uM in the presence of biotin-EBS oligonucleotide probe (5'-CAAAAAGGAGGAAGGTGAGGGAA-biotin-3') and poly(dI-dC) by EMSA analysis relative to control; type: subcellular; details: not given

SMILES | Activity [%]
COc1cccc(NC(=S)N2N=C(c3c(O)cc(OC)cc3OC)CC2c2cccc3ccccc23)c1 (stereo not given) | 53.3
COc1ccccc1NC(=S)N1N=C(c2cc(OC)c(OC)cc2O)CC1c1cccc2ccccc12 (stereo not given) | 53.3
COc1cccc(NC(=S)N2N=C(c3ccc(OC)cc3O)CC2c2cccc3ccccc23)c1 (stereo not given) | 32
COc1cc(O)c(C2=NN(C(=S)Nc3ccccc3OC)C(c3ccc(OC)c4ccccc34)C2)c(OC)c1 (stereo not given) | 70.7
COc1cc(O)c(C2=NN(C(=S)Nc3ccccc3)C(c3ccc(OC)c4ccccc34)C2)c(OC)c1 (stereo not given) | 73.3
COc1ccc(O)c(C2=NN(C(=S)Nc3ccccc3OC)C(c3ccc(OC)c4ccccc34)C2)c1 (stereo not given) | 21.8
COc1cccc(NC(=S)N2N=C(c3ccc4ccccc4c3O)CC2c2cc(OC)cc(OC)c2)c1 (stereo not given) | 42.8
COc1ccc(NC(=S)N2N=C(c3ccc4ccccc4c3O)CC2c2cc(OC)c(OC)cc2OC)c(OC)c1 (stereo not given) | 56.5
COc1cc(O)c(C2=NN(C(=S)Nc3ccccc3)C(c3cccc4ccccc34)C2)cc1OC (stereo not given) | 53.6
COc1ccc(NC(=S)N2N=C(c3ccc4ccccc4c3O)CC2c2ccc(OC)c(OC)c2OC)cc1 (stereo not given) | 49.5
COc1cc(O)c(C2=NN(C(=S)Nc3cc(OC)c(OC)c(OC)c3)C(c3ccc(OC)c4ccccc34)C2)cc1OC (stereo not given) | 59.1
COc1ccc(NC(=S)N2N=C(c3cc(OC)c(OC)cc3O)CC2c2ccc(OC)c3ccccc23)cc1 (stereo not given) | 57.3
COc1ccc(NC(=S)N2N=C(c3ccc4ccccc4c3O)CC2c2c(OC)cc(OC)cc2OC)cc1 (stereo not given) | 64.2
COc1ccc(NC(=S)N2N=C(c3ccc4ccccc4c3O)CC2c2ccc(OC)cc2OC)cc1 (stereo not given) | 44.5
COc1ccccc1NC(=S)N1N=C(c2c(O)cccc2OC)CC1c1cccc2ccccc12 (stereo not given) | 40.9
COc1cccc(NC(=S)N2N=C(c3c(O)cccc3OC)CC2c2ccc(OC)c3ccccc23)c1 (stereo not given) | 62.7
COc1ccc(NC(=S)N2N=C(c3cc(OC)c(OC)cc3O)CC2c2cccc3ccccc23)cc1 (stereo not given) | 46.9

SMILES | Activity [%]
COc1cc(NC(=S)N2N=C(c3ccc4ccccc4c3O)CC2c2cccc(OC)c2OC)cc(OC)c1OC (stereo not given) | 35.6
COc1cc(OC)cc(C2CC(c3ccc4ccccc4c3O)=NN2C(=S)Nc2ccccc2OC)c1 (stereo not given) | 40.8
COc1ccc(C2CC(c3ccccc3O)=NN2C(=S)Nc2ccccc2)c2ccccc12 (stereo not given) | 22.7
COc1ccccc1NC(=S)N1N=C(c2ccc3ccccc3c2O)CC1c1ccccc1OC (stereo not given) | 33.2
COc1cccc(C2CC(c3ccc4ccccc4c3O)=NN2C(=S)Nc2cc(OC)c(OC)c(OC)c2)c1 (stereo not given) | 30.8
COc1ccc(NC(=S)N2N=C(c3ccc4ccccc4c3O)CC2c2cccc(OC)c2OC)c(OC)c1 (stereo not given) | 67.8
COc1cccc(NC(=S)N2N=C(c3ccc4ccccc4c3O)CC2c2cc(OC)c(OC)cc2OC)c1 (stereo not given) | 55.5
COc1cc(OC)c(C2CC(c3ccc4ccccc4c3O)=NN2C(=S)Nc2ccccc2)cc1OC (stereo not given) | 81.8
COc1cc(NC(=S)N2N=C(c3c(O)cccc3OC)CC2c2ccc(OC)c3ccccc23)cc(OC)c1OC (stereo not given) | 71.8
COc1ccc(NC(=S)N2N=C(c3ccc4ccccc4c3O)CC2c2ccc(OC)cc2OC)c(OC)c1 (stereo not given) | 60.2
COc1ccc(C2CC(c3ccc4ccccc4c3O)=NN2C(=S)Nc2cc(OC)c(OC)c(OO)c2)cc1 (stereo not given) | 70.5
COc1ccc(NC(=S)N2N=C(c3ccc4ccccc4c3O)CC2c2ccc(OC)c(OC)c2OC)c(OC)c1 (stereo not given) | 46.8
COc1cc(OC)cc(C2CC(c3ccc4ccccc4c3O)=NN2C(=S)Nc2ccccc2)c1 (stereo not given) | 59
COc1ccc(NC(=S)N2N=C(c3ccc4ccccc4c3O)CC2c2cc(OC)c(OC)cc2OC)cc1 (stereo not given) | 69
COc1ccc(NC(=S)N2N=C(c3ccc4ccccc4c3O)CC2c2cccc(OC)c2OC)cc1 (stereo not given) | 27
COc1cccc(NC(=S)N2N=C(c3c(O)cccc3OC)CC2c2cccc3ccccc23)c1 (stereo not given) | 36.4

Now from value to molecule:

Activity [%] | SMILES
36.5 | COc1ccc(/C=C/c2cc(OC)cc(OC)c2-c2oc3ccc([N+](=O)[O-])cc3c(=O)c2O)cc1
48 | COc1cccc(NC(=S)N2N=C(c3ccc4ccccc4c3O)CC2c2ccc(OC)cc2OC)c1 (stereo not given)
82.2 | COc1ccc(NC(=S)N2N=C(c3ccc4ccccc4c3O)CC2c2c(OC)cc(OC)cc2OC)c(OC)c1 (racemic)
31.2 | COc1ccc(NC(=S)N2N=C(c3ccc4ccccc4c3O)CC2c2ccccc2OC)cc1 (stereo not given)
22.9 | COc1ccccc1NC(=S)N1N=C(c2c(O)ccc3ccccc23)CC1c1ccccc1OC (stereo not given)
68.8 | COc1ccccc1NC(=S)N1N=C(c2ccc3ccccc3c2O)CC1c1cc(OC)c(OC)cc1OC (stereo not given)
54 | COc1ccc(NC(=S)N2N=C(c3c(O)cccc3OC)CC2c2cccc3ccccc23)cc1 (stereo not given)
64.8 | COc1cccc(NC(=S)N2N=C(c3ccc4ccccc4c3O)CC2c2c(OC)cc(OC)cc2OC)c1 (stereo not given)
66.7 | COc1ccc(NC(=S)N2N=C(c3c(O)cccc3OC)CC2c2ccc(OC)c3ccccc23)cc1 (stereo not given)
44 | COc1ccc(C2CC(c3ccc4ccccc4c3O)=NN2C(=S)Nc2ccccc2)c(OC)c1OC (stereo not given)
71.3 | COc1cc(O)c(C2=NN(C(=S)Nc3ccccc3OC)C(c3cccc4ccccc34)C2)c(OC)c1 (stereo not given)
64 | COc1cccc(O)c1C1=NN(C(=S)Nc2ccccc2)C(c2ccc(OC)c3ccccc23)C1 (stereo not given)
51.6 | COc1cc(NC(=S)N2N=C(c3c(O)cccc3OC)CC2c2cccc3ccccc23)cc(OC)c1OC (stereo not given)
46 | COc1ccc(C2CC(c3ccc4ccccc4c3O)=NN2C(=S)Nc2ccccc2OC)c(OC)c1 (stereo not given)
38 | COc1cccc(NC(=S)N2N=C(c3ccc4ccccc4c3O)CC2c2ccc(OC)c(OC)c2OC)c1 (stereo not given)
42.4 | COc1cc(O)c(C2=NN(C(=S)Nc3cc(OC)c(OC)c(OC)c3)C(c3cccc4ccccc34)C2)cc1OC (stereo not given)
36.4 | COc1cccc(NC(=S)N2N=C(c3cc(OC)c(OC)cc3O)CC2c2cccc3ccccc23)c1 (stereo not given)
56.7 | COc1cccc(NC(=S)N2N=C(c3c(O)cc(OC)cc3OC)CC2c2ccc(OC)c3ccccc23)c1 (stereo not given)
44.8 | COc1cccc(NC(=S)N2N=C(c3ccc4ccccc4c3O)CC2c2ccccc2OC)c1 (stereo not given)

Activity [%] | SMILES
74.4 | COc1ccc(NC(=S)N2N=C(c3ccc(OC)cc3O)CC2c2ccc(OC)c3ccccc23)cc1 (stereo not given)
35.1 | COc1ccc(C2=NN(C(=S)Nc3ccccc3)C(c3cccc4ccccc34)C2)c(O)c1 (stereo not given)
73.3 | COc1ccc(C2=NN(C(=S)Nc3cc(OC)c(OC)c(OC)c3)C(c3ccc(OC)c4ccccc34)C2)c(O)c1 (stereo not given)
57.3 | COc1ccc(C2=NN(C(=S)Nc3ccccc3OC)C(c3ccc(OC)c4ccccc34)C2)c(O)c1 (stereo not given)
35.1 | COc1ccc(NC(=S)N2N=C(c3ccc(OC)cc3O)CC2c2cccc3ccccc23)cc1 (stereo not given)
46.5 | COc1ccccc1NC(=S)N1N=C(c2ccc3ccccc3c2O)CC1c1ccc(OC)c(OC)c1OC (stereo not given)
64.2 | COc1ccc(C2CC(c3ccc4ccccc4c3O)=NN2C(=S)Nc2ccc(OC)cc2OC)cc1 (stereo not given)
29.1 | COc1ccccc1NC(=S)N1N=C(c2ccccc2O)CC1c1ccc(OC)c2ccccc12 (stereo not given)
67.3 | COc1ccccc1NC(=S)N1N=C(c2c(O)cccc2OC)CC1c1ccc(OC)c2ccccc12 (stereo not given)
67.5 | COc1cc(OC)cc(C2CC(c3ccc4ccccc4c3O)=NN2C(=S)Nc2cc(OC)c(OC)c(OC)c2)c1 (stereo not given)
17.1 | COc1cccc(NC(=S)N2N=C(c3ccccc3O)CC2c2ccc(OC)c3ccccc23)c1 (stereo not given)
52.8 | COc1ccc(C2CC(c3ccc4ccccc4c3O)=NN2C(=S)Nc2ccccc2)cc1 (stereo not given)
38.2 | COc1cc(O)c(C2=NN(C(=S)Nc3cc(OC)c(OC)c(OC)c3)C(c3cccc4ccccc34)C2)c(OC)c1 (stereo not given)
31.8 | COc1ccc(NC(=S)N2N=C(c3c(O)ccc4ccccc34)CC2c2ccccc2OC)cc1 (stereo not given)
27 | COc1cccc(C2CC(c3ccc4ccccc4c3O)=NN2C(=S)Nc2ccc(OC)cc2OC)c1 (stereo not given)
28 | COc1ccc(NC(=S)N2N=C(c3cc(OC)ccc3O)CC2c2ccc(OC)c3ccccc23)cc1 (stereo not given)
16.5 | COc1cccc(NC(=S)N2N=C(c3ccc4ccccc4c3O)CC2c2cccc(OC)c2)c1 (stereo not given)
56.4 | COc1cccc(NC(=S)N2N=C(c3ccc(OC)cc3O)CC2c2ccc(OC)c3ccccc23)c1 (stereo not given)

biological target: Early growth response protein 1 (Homo sapiens) (UniProt P18146); test: Disruption of EGR-1-DNA binding in TNF-alpha-stimulated human HaCaT cells assessed as decrease in CCL-2 mRNA level in presence of TNF-alpha by RT-PCR analysis; type: cell-based; details: dose 10-20 µM

Activity | SMILES
Dose-dependent-effect | COc1ccc(NC(=S)N2N=C(c3ccc4ccccc4c3O)CC2c2c(OC)cc(OC)cc2OC)c(OC)c1 (racemic)

biological target: Early growth response protein 1 (Homo sapiens) (UniProt P18146); test: Disruption of EGR-1-DNA binding in TNF-alpha-stimulated human HaCaT cells assessed as decrease in IL-6 mRNA level in presence of TNF-alpha by RT-PCR analysis; type: cell-based; details: dose 10-20 µM

Activity | SMILES
Dose-dependent-effect | COc1ccc(NC(=S)N2N=C(c3ccc4ccccc4c3O)CC2c2c(OC)cc(OC)cc2OC)c(OC)c1 (racemic)

biological target: Early growth response protein 1 (Homo sapiens) (UniProt P18146); test: Disruption of EGR-1-DNA binding in TNF-alpha-stimulated human HaCaT cell nuclear extract assessed as reduction in DNA-protein complex formation pretreated for 1 hr followed by incubation of nuclear extract with biotin-EBS oligonucleotide probe (5'-CAAAAAGGAGGAAGGTGAGGGAA-biotin-3') by EMSA analysis; type: subcellular; details: Nucleus, dose 10-20 µM

Activity | SMILES
Dose-dependent-effect | COc1ccc(NC(=S)N2N=C(c3ccc4ccccc4c3O)CC2c2c(OC)cc(OC)cc2OC)c(OC)c1 (racemic)

biological target: Early growth response protein 1 (Homo sapiens) (UniProt P18146); test: Disruption of EGR-1-DNA binding in TNF-alpha-stimulated human HaCaT cells assessed as decrease in TSLP mRNA level in presence of TNF-alpha by RT-PCR analysis; type: cell-based; details: dose 10-20 µM

Activity | SMILES
Dose-dependent-effect | COc1ccc(NC(=S)N2N=C(c3ccc4ccccc4c3O)CC2c2c(OC)cc(OC)cc2OC)c(OC)c1 (racemic)

Reference: ChEMBL document CHEMBL6103550, “Pyrazolo-1-carbothioamides as EGR-1-DNA binding disruptors” (Bioorg Med Chem Lett, 2025)
